Patent US9889183B2, “PKC activators and anticoagulant in regimen for treating stroke” (BLANCHETTE ROCKEFELLER NEUROSCIENCES INSTITUTE, priority 2010, dated 2018)

Key:
[1] = system: global cerebral ischemia/hypoxia in rats; experiment: Global ischemia model, water maze (Examples 10-11); format: in vivo, rat
Protocol: Rats (male, Wistar, 200-225 g) were randomly divided into 6 groups (8 each) and housed for 1 week before experimentation. […] The global ischemia model used to induce vascular memory impairment was two-vessel occlusion combined with a short term systemic hypoxia. Ligation of the bilateral common carotid arteries was performed under anesthesia (pentobarbital, 60 mg/kg, i.p.). After a one-week recovery from the surgery, rats were exposed to 14-min hypoxia (5% oxygen in a glass jar). Control rats (sham operated and vehicle controls) were subjected to the same incision to isolate both common carotid arteries and to 14-min air (in the glass jar). Body temperature was kept at 37-37.5° C. using a heating light source during the surgical procedure and until the animals were fully recovered.

[2] = system: α-secretase; conditions: 10 pM; human fibroblasts; cited from earlier work
[3] = system: PKC in primary neurons; experiment: PKC activity over time in rat hippocampal primary neurons; format: cell-based; conditions: only observed in primary neurons
Protocol: Cell culture. Rat hippocampal H19-7/IGF-IR cells (ATCC, Manassas, Va.) were plated onto poly-L-lysine coated plates and grown at 35° C. in DMEM/10% FCS for several days until about 50% coverage was obtained. The cells were then induced to differentiate into a neuronal phenotype by replacing the medium with 5 ml N2 medium containing 10 ng/ml basic fibroblast growth factor at 39° C. and grown in T-75 flasks at 37° C. Human SH-SY5Y neuroblastoma cells (ATCC) were cultured in 45% F12K/45% MEM/10% FCS. Mouse N2A neuroblastoma cells were cultured in DMEM/10% FCS without glutamine. Rat hippocampal neurons from 18-day-old embryonic Sprague Dawley rat brains were plated on 12- or 96-well plates coated with poly-D-lysine (Sigma-Aldrich, St. Louis, Mo.) in B-27 neurobasal medium containing 0.5 mM glutamine and 25 μM glutamate (Invitrogen, Carlsbad, Calif.) and cultured for three days in the medium without glutamate. The neuronal cells were grown under 5% CO2 in an incubator maintained at 37° C. for 14 days.
Protein kinase C assay. […] 0.5 Ci[^γ32P]ATP was added and ^32P-phosphoprotein formation was measured by adsorption onto phosphocellulose as described previously. […] PKC activity was measured in the absence of diacylglycerol and phosphatidylserine and PKC δ, ε, η, and μ were measured in the absence of added EGTA and CaCl2, as described by Kanno et al. (J. Lipid Res. 2006, vol. 47, pp. 1146-1150). […]

[4] = biological target: T1, PKCε (Homo sapiens, UniProt Q02156); conditions: cited from earlier work
T1 construct: purchased Calbiochem
T1 sequence (Q02156 1-737): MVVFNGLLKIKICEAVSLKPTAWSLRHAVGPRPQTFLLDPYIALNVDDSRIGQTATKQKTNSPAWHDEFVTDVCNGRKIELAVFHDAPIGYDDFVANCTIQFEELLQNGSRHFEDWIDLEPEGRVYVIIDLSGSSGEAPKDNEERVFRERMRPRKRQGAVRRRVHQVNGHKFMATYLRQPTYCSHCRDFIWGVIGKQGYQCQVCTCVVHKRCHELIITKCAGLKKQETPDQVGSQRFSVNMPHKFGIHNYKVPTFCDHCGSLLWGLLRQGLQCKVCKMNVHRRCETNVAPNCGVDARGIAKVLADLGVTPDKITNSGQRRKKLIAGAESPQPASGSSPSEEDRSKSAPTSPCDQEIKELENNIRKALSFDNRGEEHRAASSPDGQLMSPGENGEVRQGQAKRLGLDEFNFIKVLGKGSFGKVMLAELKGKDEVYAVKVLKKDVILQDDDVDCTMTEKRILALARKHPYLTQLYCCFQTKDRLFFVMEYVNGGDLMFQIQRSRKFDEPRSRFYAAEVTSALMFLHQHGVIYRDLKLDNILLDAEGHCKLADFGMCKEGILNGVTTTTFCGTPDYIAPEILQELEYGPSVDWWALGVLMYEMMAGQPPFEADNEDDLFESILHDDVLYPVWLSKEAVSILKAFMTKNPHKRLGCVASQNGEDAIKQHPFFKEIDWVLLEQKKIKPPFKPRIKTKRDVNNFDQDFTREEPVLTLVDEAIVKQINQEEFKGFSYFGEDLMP

Row | SMILES | water maze spatial learning, ischemic treated vs ischemic rats ([1]; bryostatin-1 20 μg/m^2 i.v. 2 doses/week, 10 doses, MCDA 1.0 mg/kg i.p. daily 5 weeks, start 24 hours after hypoxia) | water maze spatial learning, drug-only vs control rats ([1]; non-ischemic rats, same regimens) | water maze spatial learning, ischemic treated vs control rats ([1]; same regimens) | increase of initial rate of α-secretase activity [2] [fold] | time PKC remained elevated [3] | concentration of maximal effect, selective PKCε activation [4] [nM]
1 | CCC/C=C/C=C/C(=O)O[C@H]1/C(=C/C(=O)OC)C[C@H]2C[C@H]([C@@H](C)O)OC(=O)C[C@H](O)C[C@@H]3C[C@H](OC(C)=O)C(C)(C)[C@](O)(C[C@@H]4C/C(=C/C(=O)OC)C[C@H](/C=C/C(C)(C)[C@]1(O)O2)O4)O3 [Bryostatin-1, bryostatin-1] | greatly improved the performance | no differences | did not differ statistically | 16 |  | 
2 | CCCCCC1CC1CC1CC1CCCCCCCC(=O)O (stereo not drawn) [BR-101, 2-[(2-pentylcyclopropyl)methyl]cyclopropaneoctanoic acid] |  |  |  |  | at least four | 100
